pIC50: −log10 of the molar value. Where a name gives a salt, the structure may show the parent alone. Read-outs that look alike come from different tables or passages of the source.
How the values were obtained:
human FGFR-3 = human FGFR-3 (Homo sapiens (Human), UniProt P22607); assay: FGFR-3 kinase assay (TR-FRET); assay type: biochemical; details: 10 μM ATP; compounds of the invention
human mTOR = human mTOR (Homo sapiens (Human), UniProt P42345); assay: mTOR kinase assay (TR-FRET, for comparative purposes); assay type: biochemical; details: for inhibition at 1 µM: read-out: mTOR % inhibition @ 1 μM
Excerpt: mTOR inhibitory activity of the compounds of the present invention was quantified employing the TR-FRET based mTOR assay as described in the following paragraphs: Recombinant fusion tagged mTOR protein [glutathione-S-transferase (GST) fused to human mTOR amino acids from 1360 to 2549], expressed in insect cells and purified by glutathione-sepharose affinity chromatography, was purchased from Invitrogen (Cat.-No. 4753) and used as enzyme. As substrate for the kinase reaction, a recombinant fusion protein of GFP and 4E-BP1 (purchased from Invitrogen, Cat.-No. PV4759) was used. Test compounds were dissolved in DMSO to generate 10 mM stock solutions. […] The resulting mixture was incubated for 1 h at 22° C. to allow formation of the complex between the phosphorylated substrate and the Tb-chelate labelled antibody. Subsequently, the amount of phosphorylated substrate was evaluated by measurement of the resonance energy transfer from the Tb-chelate to the GFP. For this, the fluorescence emissions at 495 nm and 520 nm after excitation at 340 nm was measured in an Envision 2104 multilabel reader (Perkin-Elmer). The ratio of the emissions at 520 nm and at 495 nm was taken as the measure for the amount of phosphorylated substrate.

[1] = 1 μM test compound, mean inhibition values

Sequence of human mTOR (P42345 1360-2549): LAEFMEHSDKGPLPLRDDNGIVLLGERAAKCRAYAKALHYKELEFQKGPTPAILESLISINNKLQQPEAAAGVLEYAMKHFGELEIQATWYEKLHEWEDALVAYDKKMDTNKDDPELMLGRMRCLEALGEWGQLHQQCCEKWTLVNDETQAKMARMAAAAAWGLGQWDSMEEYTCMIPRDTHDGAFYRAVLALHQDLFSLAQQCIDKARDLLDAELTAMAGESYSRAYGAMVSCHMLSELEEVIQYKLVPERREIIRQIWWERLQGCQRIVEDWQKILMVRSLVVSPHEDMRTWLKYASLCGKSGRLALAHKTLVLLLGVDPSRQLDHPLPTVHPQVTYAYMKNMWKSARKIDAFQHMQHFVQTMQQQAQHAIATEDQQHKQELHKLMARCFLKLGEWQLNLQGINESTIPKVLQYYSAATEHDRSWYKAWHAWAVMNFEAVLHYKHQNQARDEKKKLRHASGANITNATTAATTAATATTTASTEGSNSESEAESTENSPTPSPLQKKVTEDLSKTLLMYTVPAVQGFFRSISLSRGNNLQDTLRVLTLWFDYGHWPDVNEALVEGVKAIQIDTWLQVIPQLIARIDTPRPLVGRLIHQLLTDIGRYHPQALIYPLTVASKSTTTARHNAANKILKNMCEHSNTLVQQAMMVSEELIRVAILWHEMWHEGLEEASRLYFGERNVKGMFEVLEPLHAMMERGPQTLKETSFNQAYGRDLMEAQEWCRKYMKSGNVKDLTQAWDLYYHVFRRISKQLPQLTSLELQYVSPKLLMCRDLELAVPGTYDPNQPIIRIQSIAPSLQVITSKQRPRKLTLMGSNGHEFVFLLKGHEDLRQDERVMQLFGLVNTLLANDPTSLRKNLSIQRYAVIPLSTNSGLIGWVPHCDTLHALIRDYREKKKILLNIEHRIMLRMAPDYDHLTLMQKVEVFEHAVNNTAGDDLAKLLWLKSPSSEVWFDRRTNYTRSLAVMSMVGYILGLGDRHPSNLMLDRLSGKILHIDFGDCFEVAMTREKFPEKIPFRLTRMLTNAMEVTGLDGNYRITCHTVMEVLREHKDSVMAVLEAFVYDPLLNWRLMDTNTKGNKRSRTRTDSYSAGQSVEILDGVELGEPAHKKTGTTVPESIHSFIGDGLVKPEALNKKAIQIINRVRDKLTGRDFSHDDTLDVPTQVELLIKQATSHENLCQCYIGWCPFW
Sequence of human FGFR-3 (P22607 397-806): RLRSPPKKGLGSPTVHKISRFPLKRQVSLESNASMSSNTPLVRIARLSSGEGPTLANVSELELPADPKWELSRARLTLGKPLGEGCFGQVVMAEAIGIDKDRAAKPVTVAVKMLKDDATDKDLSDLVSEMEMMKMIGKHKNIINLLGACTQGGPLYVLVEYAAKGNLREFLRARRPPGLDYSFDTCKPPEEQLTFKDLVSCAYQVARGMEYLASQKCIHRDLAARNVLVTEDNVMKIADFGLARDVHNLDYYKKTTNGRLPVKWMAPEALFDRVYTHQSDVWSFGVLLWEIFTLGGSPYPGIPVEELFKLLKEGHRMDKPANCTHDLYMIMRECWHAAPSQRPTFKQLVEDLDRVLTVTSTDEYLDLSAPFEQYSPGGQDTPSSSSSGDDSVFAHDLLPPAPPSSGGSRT

SMILES | pIC50 (human FGFR-3) | inhibition at 1 µM (human mTOR) | mTOR % inhibition @ 1 μM (human mTOR; [1]) | inhibition at 1 µM (human mTOR; [1])
COc1cc(C)cc2cc(-c3c(CNCCO)cn4ncnc(N)c34)sc12 [Example 10, 2-({[4-Amino-5-(7-methoxy-5-methyl-1-benzothiophen-2-yl)pyrrolo[2,1-f][1,2,4]triazin-6-yl]-methyl}amino)ethanol dihydrochloride] | 8.85 | 10.3% |  | 
COc1cc(C)cc2cc(-c3c(CN4CCNC(=O)C4)cn4ncnc(N)c34)sc12 [Example 11, 4-{[4-Amino-5-(7-methoxy-5-methyl-1-benzothiophen-2-yl)pyrrolo[2,1-f][1,2,4]triazin-6-yl]-methyl}piperazin-2-one] | 9.40 |  | no inhib. effect detect. | 
CNC(=O)CNCc1cn2ncnc(N)c2c1-c1cc2cc(C)cc(OC)c2s1 [Example 13, N^2-{[4-Amino-5-(7-methoxy-5-methyl-1-benzothiophen-2-yl)pyrrolo[2,1-f][1,2,4]triazin-6-yl]-methyl}-N-methylglycinamide] | 7.82 |  |  | 5.3%
COc1cc(C)cc2cc(-c3c(CN(C)CC(N)=O)cn4ncnc(N)c34)sc12 [Example 14, N^2-{[4-Amino-5-(7-methoxy-5-methyl-1-benzothiophen-2-yl)pyrrolo[2,1-f][1,2,4]triazin-6-yl]-methyl}-N^2-methylglycinamide] | 9.10 |  |  | 0.3%
CCOC(=O)CNCc1cn2ncnc(N)c2c1-c1cc2cc(C)cc(OC)c2s1 [Example 15, Ethyl N-{[4-amino-5-(7-methoxy-5-methyl-1-benzothiophen-2-yl)pyrrolo[2,1-f][1,2,4]triazin-6-yl]-methyl}glycinate dihydrochloride] | 7.06 | 4% |  | 
COc1cc(C)cc2cc(-c3c(CNCC(N)=O)cn4ncnc(N)c34)sc12 [Example 16, N^2-{[4-Amino-5-(7-methoxy-5-methyl-1-benzothiophen-2-yl)pyrrolo[2,1-f][1,2,4]triazin-6-yl]-methyl}glycinamide] | 8.64 |  |  | 8.8%
COc1cc(C)cc2cc(-c3c(CNCC(C)(C)O)cn4ncnc(N)c34)sc12 [Example 17, 1-({[4-Amino-5-(7-methoxy-5-methyl-1-benzothiophen-2-yl)pyrrolo[2,1-f][1,2,4]triazin-6-yl]-methyl}amino)-2-methylpropan-2-ol dihydrochloride] | 8.74 |  | no inhib. effect detect. | 
COc1cc(C)cc2cc(-c3c(CNCCCO)cn4ncnc(N)c34)sc12 [Example 20, 3-({[4-Amino-5-(7-methoxy-5-methyl-1-benzothiophen-2-yl)pyrrolo[2,1-f][1,2,4]triazin-6-yl]-methyl}amino)propan-1-ol dihydrochloride] | 7.82 |  | no inhib. effect detect. | 
COc1cc(C)cc2cc(-c3c(CN4CCN(C(C)=O)CC4)cn4ncnc(N)c34)sc12 [Example 21, 1-(4-{[4-Amino-5-(7-methoxy-5-methyl-1-benzothiophen-2-yl)pyrrolo[2,1-f][1,2,4]triazin-6-yl]-methyl}piperazin-1-yl)ethanone] | 7.55 |  | no inhib. effect detect. | 
COc1cc(C)cc2cc(-c3c(CN4CCN(C(=O)OC(C)(C)C)CC4)cn4ncnc(N)c34)sc12 [Example 22, tert-Butyl 4-{[4-amino-5-(7-methoxy-5-methyl-1-benzothiophen-2-yl)pyrrolo[2,1-f][1,2,4]triazin-6-yl]methyl}piperazine-1-carboxylate trifluoroacetate] | 7.97 | 1.6% |  | 
COc1cc(C)cc2cc(-c3c(CN4CCOCC4)cn4ncnc(N)c34)sc12 [Example 23, 5-(7-Methoxy-5-methyl-1-benzothiophen-2-yl)-6-(morpholin-4-ylmethyl)pyrrolo[2,1-f][1,2,4]triazin-4-amine] | 7.76 |  |  | 2%
COc1cc(C)cc2cc(-c3c(CNCCNC(C)=O)cn4ncnc(N)c34)sc12 [Example 24, N-[2-({[4-Amino-5-(7-methoxy-5-methyl-1-benzothiophen-2-yl)pyrrolo[2,1-f][1,2,4]triazin-6-yl]-methyl}amino)ethyl]acetamide trifluoroacetate] | 8.06 | 0.3% |  | 
COc1cc(C)cc2cc(-c3c(CN4CCNCC4)cn4ncnc(N)c34)sc12 [Example 25, 5-(7-Methoxy-5-methyl-1-benzothiophen-2-yl)-6-(piperazin-1-ylmethyl)pyrrolo[2,1-f][1,2,4]triazin-4-amine trihydrochloride] | 9.40 |  | no inhib. effect detect. | 
COc1cc(C)cc2cc(-c3c(CN[C@H]4CCNC4=O)cn4ncnc(N)c34)sc12 [Example 27, (3S)-3-({[4-Amino-5-(7-methoxy-5-methyl-1-benzothiophen-2-yl)pyrrolo[2,1-f][1,2,4]triazin-6-yl]-methyl}amino)pyrrolidin-2-one dihydrochloride] | 9.30 | 5% |  | 
CCOCc1cn2ncnc(N)c2c1-c1cc2cc(C)cc(OC)c2s1 [Example 28, 6-(Ethoxymethyl)-5-(7-methoxy-5-methyl-1-benzothiophen-2-yl)pyrrolo[2,1-f][1,2,4]triazin-4-amine] | 7.85 |  |  | 35.5%
Cc1ccc2sc(-c3c(CN4CCNC(=O)C4)cn4ncnc(N)c34)cc2c1 [Example 29, 4-{[4-Amino-5-(5-methyl-1-benzothiophen-2-yl)pyrrolo[2,1-f][1,2,4]triazin-6-yl]methyl}piperazin-2-one] | 7.73 |  |  | 0.6%
COc1cccc2cc(-c3c(CN4CCNC(=O)C4)cn4ncnc(N)c34)sc12 [Example 30, 4-{[4-Amino-5-(7-methoxy-1-benzothiophen-2-yl)pyrrolo[2,1-f][1,2,4]triazin-6-yl]methyl}piperazin-2-one] | 8.51 |  |  | 1.6%
COc1cc(Cl)cc2cc(-c3c(CN4CCNC(=O)C4)cn4ncnc(N)c34)sc12 [Example 31, 4-{[4-Amino-5-(5-chloro-7-methoxy-1-benzothiophen-2-yl)pyrrolo[2,1-f][1,2,4]triazin-6-yl]methyl}-piperazin-2-one] | 9.52 |  |  | 9.1%
